Measurements: ChEMBL document CHEMBL1909046, “DrugMatrix in vitro pharmacology data”

How the values were obtained:
Cannabinoid receptor 1 = Cannabinoid receptor 1 (Homo sapiens, UniProt P21554); assay type: cell membranes, Chem-1, Membrane; settings: chem-1; note: in other assays of this panel Not Active means under 50% inhibition at 10 µM
[1] = molecular target: T1, 3-hydroxy-3-methylglutaryl-coenzyme A reductase (Homo sapiens, UniProt P04035); design: species or system Escherichia coli;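 note: enzyme inhibition assay of HMG-CoA reductase using radiolabeled [14C]HMG-CoA as substrate; in other assays of this panel Not Active means under 50% inhibition at 10 µM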
T1 sequence (P04035 whole entry): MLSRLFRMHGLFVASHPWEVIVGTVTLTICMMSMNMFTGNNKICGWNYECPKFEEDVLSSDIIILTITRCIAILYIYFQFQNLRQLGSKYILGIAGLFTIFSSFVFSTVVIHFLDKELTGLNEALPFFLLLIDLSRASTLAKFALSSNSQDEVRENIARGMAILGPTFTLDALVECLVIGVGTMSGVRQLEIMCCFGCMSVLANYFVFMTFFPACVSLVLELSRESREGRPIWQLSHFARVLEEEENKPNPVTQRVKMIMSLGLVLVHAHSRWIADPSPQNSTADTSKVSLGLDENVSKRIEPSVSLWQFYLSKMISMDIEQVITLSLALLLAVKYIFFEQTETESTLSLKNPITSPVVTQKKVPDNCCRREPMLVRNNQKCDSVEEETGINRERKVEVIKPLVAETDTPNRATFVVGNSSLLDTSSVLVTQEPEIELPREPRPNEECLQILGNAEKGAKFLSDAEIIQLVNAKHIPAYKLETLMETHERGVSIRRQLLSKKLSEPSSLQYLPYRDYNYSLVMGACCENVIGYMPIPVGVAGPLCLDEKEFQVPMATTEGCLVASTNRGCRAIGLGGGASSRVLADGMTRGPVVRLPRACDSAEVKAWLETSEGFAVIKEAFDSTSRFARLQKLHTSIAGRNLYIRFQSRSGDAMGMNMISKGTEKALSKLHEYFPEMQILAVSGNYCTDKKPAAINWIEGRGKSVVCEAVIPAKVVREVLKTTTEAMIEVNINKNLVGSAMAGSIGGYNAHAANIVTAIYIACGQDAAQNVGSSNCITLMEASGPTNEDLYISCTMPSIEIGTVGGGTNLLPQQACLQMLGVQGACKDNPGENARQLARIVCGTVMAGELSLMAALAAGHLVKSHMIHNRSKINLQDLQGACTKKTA

[2] = molecular target: T2, Neuropeptide Y receptor type 2 (Homo sapiens, UniProt P49146); assay type: cell membranes, Membrane; settings: kan-ts; note: in other assays of this panel Not Active means under 50% inhibition at 10 µM
T2 sequence (P49146 whole entry): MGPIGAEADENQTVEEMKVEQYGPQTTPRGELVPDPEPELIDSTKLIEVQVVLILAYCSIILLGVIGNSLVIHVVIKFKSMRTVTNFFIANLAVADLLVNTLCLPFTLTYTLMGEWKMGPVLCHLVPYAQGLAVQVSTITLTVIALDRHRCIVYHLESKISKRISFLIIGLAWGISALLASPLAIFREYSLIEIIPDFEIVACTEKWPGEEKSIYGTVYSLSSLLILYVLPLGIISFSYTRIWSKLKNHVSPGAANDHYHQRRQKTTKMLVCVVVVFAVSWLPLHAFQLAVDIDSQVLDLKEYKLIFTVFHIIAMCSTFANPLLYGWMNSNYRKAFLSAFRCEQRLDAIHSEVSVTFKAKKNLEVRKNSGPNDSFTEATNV

[3] = molecular target: Receptor tyrosine-protein kinase erbB-2 (Homo sapiens, UniProt P04626); experiment: biochemical; assay type: cell-based, Insect cells; settings: insect cells;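 note: inhibition of HER2 kinase enzyme activity, measured with Poly(Glu:Tyr) as the phosphorylation substrate; in other assays of this panel Not Active means under 50% inhibition at 10 µM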
Adenosine receptor A2a = Adenosine receptor A2a (Homo sapiens, UniProt P29274); experiment: DRUGMATRIX: Adenosine A2A radioligand binding (ligand: […]); assay type: cell membranes, HEK293, Membrane; settings: hek293; Not Active = under 50% inhibition at 10 µM
Adenosine receptor A2a, sequence (P29274 whole entry): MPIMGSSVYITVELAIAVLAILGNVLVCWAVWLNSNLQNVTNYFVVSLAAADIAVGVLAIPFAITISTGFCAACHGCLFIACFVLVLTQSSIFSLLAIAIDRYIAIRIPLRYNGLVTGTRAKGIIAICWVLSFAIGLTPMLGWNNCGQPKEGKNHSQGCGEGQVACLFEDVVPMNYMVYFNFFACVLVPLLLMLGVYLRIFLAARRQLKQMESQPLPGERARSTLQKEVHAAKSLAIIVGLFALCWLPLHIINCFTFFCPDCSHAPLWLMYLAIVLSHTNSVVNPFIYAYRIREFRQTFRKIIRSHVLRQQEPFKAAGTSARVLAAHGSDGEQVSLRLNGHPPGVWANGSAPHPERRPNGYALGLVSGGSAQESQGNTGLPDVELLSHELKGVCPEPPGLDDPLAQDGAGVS

Cytochrome P450 2A6 = molecular target: T3, Cytochrome P450 2A6 (Homo sapiens, UniProt P11509); settings: bti-tn-5b1-4; note: in other assays of this panel Not Active means under 50% inhibition at 10 µM
T3 sequence (P11509 whole entry): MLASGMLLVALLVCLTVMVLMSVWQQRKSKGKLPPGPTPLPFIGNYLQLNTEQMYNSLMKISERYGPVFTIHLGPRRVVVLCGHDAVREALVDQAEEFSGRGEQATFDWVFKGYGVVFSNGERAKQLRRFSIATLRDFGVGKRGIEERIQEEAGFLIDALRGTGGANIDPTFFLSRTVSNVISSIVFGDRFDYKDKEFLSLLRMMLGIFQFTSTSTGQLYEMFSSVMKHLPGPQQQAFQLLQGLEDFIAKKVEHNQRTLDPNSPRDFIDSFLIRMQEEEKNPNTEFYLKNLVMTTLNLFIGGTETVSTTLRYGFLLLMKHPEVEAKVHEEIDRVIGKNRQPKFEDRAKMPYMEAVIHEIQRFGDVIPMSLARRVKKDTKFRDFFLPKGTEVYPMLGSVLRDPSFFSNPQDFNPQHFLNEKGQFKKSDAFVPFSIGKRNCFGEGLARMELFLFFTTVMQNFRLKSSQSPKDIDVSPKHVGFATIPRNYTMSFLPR

Cannabinoid receptor 1, sequence (P21554 whole entry): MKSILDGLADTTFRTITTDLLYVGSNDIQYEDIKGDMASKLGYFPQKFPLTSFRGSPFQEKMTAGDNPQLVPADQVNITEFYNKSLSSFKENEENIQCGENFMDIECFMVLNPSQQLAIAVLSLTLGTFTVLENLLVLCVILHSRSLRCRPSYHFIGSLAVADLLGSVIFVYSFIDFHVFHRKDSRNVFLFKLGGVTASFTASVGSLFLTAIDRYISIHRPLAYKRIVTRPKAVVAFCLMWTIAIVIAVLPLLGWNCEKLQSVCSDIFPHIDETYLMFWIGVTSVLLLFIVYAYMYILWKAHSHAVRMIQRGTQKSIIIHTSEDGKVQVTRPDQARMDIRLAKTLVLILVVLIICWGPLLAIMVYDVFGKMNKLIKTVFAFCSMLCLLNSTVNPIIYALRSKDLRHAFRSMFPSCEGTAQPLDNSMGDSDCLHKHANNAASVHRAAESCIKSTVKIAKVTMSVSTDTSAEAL

ZIRCONIUM(IV) CHLORIDE
Not Active: IC50 (Cannabinoid receptor 1) | Ki (Cannabinoid receptor 1) | IC50 [1] | Ki [1] | IC50 [2] | Ki [2] | IC50 [3] | Ki [3] | IC50 (Adenosine receptor A2a) | Ki (Adenosine receptor A2a) | IC50 (Cytochrome P450 2A6) | Ki (Cytochrome P450 2A6)
